Experimental data taken from patent US12551368B2, “Bioerodible ocular drug delivery insert and therapeutic method” (EyePoint Pharmaceuticals, Inc., priority 2020, dated 2026).

Experiments:
[1] = cited from earlier work
[2] = Intravitreal Pharmacokinetic Study of vorolanib insert (Example 5); format: in vivo, Male Dutch Belted Rabbits
Procedure: An Intravitreal Pharmacokinetic Study was performed in Male Dutch Belted Rabbits. The objective of this study was to characterize the plasma and ocular tissue pharmacokinetics of a vorolanib insert following bilateral intravitreal injection on Day 1. Animals were evaluated up to 24 months following placement of the intravitreal insert.
The low dose group (1) received 3 inserts per eye for a total dose of 630 μg per eye. The high dose group (2) animals received 6 inserts per eye given in 2 separate injections (3 inserts per injection) for a total dose of 1,260 μg per eye.
Prior to each scheduled sacrifice point, one whole blood sample was collected from a targeted 2 animals per group via puncture of a marginal ear vein. Samples were tested for levels of vorolanib and its metabolite. Two animals per group were euthanized on day 1 at 6, 12, 24 and 48 hours, on days 7 and 14, and at 1, 2, 4, 6, 8, 16 and 24 months.

[3] = 18 month intravitreal toxicity and plasma pharmacokinetics study of the insert (Example 6); format: in vivo; conditions: rabbit
Procedure: An 18 month intravitreal toxicity study for the insert was also performed in 80 Dutch Belted rabbits (40 male and 40 female). Animals were evaluated for a period of 6 and 18 months following placement of intravitreal inserts. The objective was to characterize the ocular toxicity, plasma pharmacokinetics and biodegradation of a vorolanib insert following bilateral intravitreal injection.
The tables below describe the group assignments and dose levels. For the toxicology groups, animals were sacrificed at 6 months and 18 months. For the plasma pharmacokinetic analysis, blood samples were collected at Days 1, 3, and 7 and then 1, 2, 3, 4, 5, 6, 12, 14, 16 and 18 Months
The placebo group (1) animals received two placebo inserts by injection in each eye. The low dose group (2) animals received 2 inserts in each eye. The mid dose group (3) animals received 3 inserts in each eye given in 2 separate injections. The high dose group (4) animals received 4 inserts in each eye given in 2 separate injections (2 inserts/injection). The highest dose group (5) animals received 6 inserts in each eye given in 2 separate injections (3 inserts/injection).
At each scheduled timepoint, whole blood was collected via puncture of a marginal ear vein. Samples were analyzed for clinical pathology and plasma pharmacokinetics. Animals were euthanized according to the schedules described above. […]

[4] = system: Laser-Induced Choroidal Neovascularization (CNV); assay: Laser-Induced Choroidal Neovascularization (CNV) model, fluorescein angiography (Example 7); format: in vivo, Swine (Mini-pig)
Procedure: Safety and efficacy of a vorolanib insert were evaluated in a Swine (Mini-pig) Model of Laser-Induced Choroidal Neovascularization (CNV). The primary objective of this study was to evaluate the long-term safety and inhibition of vascular permeability and neovascularization in a laser-induced model of choroidal neovascularization (CNV) using a vorolanib insert in swine.
On the day of lasering (Groups 1-4) animals were treated with an 810 nm diode laser delivered through an indirect ophthalmoscope. Approximately 6 single laser spots were placed between retinal veins. Both eyes underwent laser treatment according to the schedule in the table above.
On the day of intravitreal injections animals were anesthetized and the eyes were aseptically prepared. […] Animals were allowed to recover normally from the procedure. The pigs were given a topical drop of antibiotic ophthalmic solution 4-6 hours later, and then BID for 2 additional days with at least 6 hours between doses. Animals were dosed on either Day 0 immediately following laser CNV induction or 7 days prior to laser CNV induction according to the schedule in the table above.
Flourescein Angiography was done in both eyes in anesthetized animals at the timepoints as indicated in the experimental design table.

CNC(=O)c1ccccc1Sc1ccc2c(/C=C/c3ccccn3)n[nH]c2c1 [axitinib, N-methyl-2-[3-((E)-2-pyridin-2-yl-vinyl)-1H-indazol-6-ylsulfanyl]-benzamide]
solubility in aqueous media ([1]; over the range pH 1.1 to pH 7.8): > 0.2 µg/mL

Cc1[nH]c(/C=C2\C(=O)Nc3ccc(F)cc32)c(C)c1C(=O)N[C@H]1CCN(C(=O)N(C)C)C1 [vorolanib, (S,Z)—N-(1-(Dimethylcarbamoyl)pyrrolidin-3-yl)-5-((5-fluoro-2-oxoindolin-3-ylidene)methyl)-2,4-dimethyl-1H-pyrrole-3-carboxamide]
dose proportionality of maximum observed concentrations in vitreous and retina/choroid ([2]; 630 vs 1,260 μg per eye, rabbit): nearly dose-proportional | vorolanib plasma levels ([2]; PK study, rabbit): low pg/mL range | change in plasma levels ([2]; after 99 days, rabbit): No apparent change | vorolanib levels in the vitreous and the retina/choroid relative to the IC50 for VEGFR ([2]; at the time points tested, rabbit): remained significantly above the IC50 for VEGFR | time at which steady state was reached ([2]; inserts in rabbit eye): ≤ 105 days | burst period of drug release in vivo ([2]; inserts in rabbit eye, followed by steady state): 90 days | solubility in water [1]: less than 0.1 μg/mL | vorolanib plasma levels ([3]; 2 to 6 inserts per eye, bilateral intravitreal, toxicology study): low pg/mL range | adverse findings ([3]; intravitreal, up to 6 inserts per eye): No adverse findings were attributed to vorolanib

aflibercept: VEGF inhibitor used as comparator, 2 mg, 50 μL/eye IVT
reduction in Corrected Total Lesion Fluorescence (CTLF) value ([4]; Day 7 to Day 28, Aflibercept (2 mg), 50 μL/eye IVT): largest reduction in CTLF values | overall efficacy in the CNV model ([4]; IVT, swine): normal amounts of efficacy in this model
